Experimental data from patent publication US12203089B2, “Plants having increased tolerance to herbicides” (BASF SE, priority 2015, dated 2025).

Assays:
Type in all cases: in vivo
[1] = system: Arabidopsis thaliana expressing AtCesA1_G1009D_G1013R (SEQ ID 1); experiment: 48-well plate growth inhibition, T2 seeds, tolerance factor; settings: based on IC50 values of growth inhibition, seven to ten days after seeding
Procedure: (§1) Transgenic Arabidopsis thaliana plants (T2) are assayed for improved tolerance to azine herbicides like e. g. 6-cyclopentyl-N4-(2,3,4,5,6-pentafluorophenyl)-1,3,5-triazine-2,4-diamine in 48-well plates. Therefore, T2 seeds are surface sterilized by stirring for 5 min in ethanol+water (70+30 by volume), rinsing one time with ethanol+water (70+30 by volume) and two times with sterile, deionized water. The seeds are resuspended in 0.1% agar dissolved in water (w/v) Four to five seeds per well are plated on solid nutrient medium consisting of half-strength murashige skoog nutrient solution, pH 5.8 (Murashige and Skoog (1962) Physiologia Plantarum 15: 473-497). Compounds are dissolved in dimethylsulfoxid (DMSO) and added to the medium prior solidification (final DMSO concentration 0.1%). Multi well plates are incubated in a growth chamber at 22° C., 75% relative humidity and 110 μmol Phot*m^−2*s^−1 with 14:10 h light:dark photoperiod. Growth inhibition is evaluated seven to ten days after seeding in comparison to wild type plants. Tolerance factors are calculated based on IC50 values of growth inhibition of transformed versus non-transformed Arabidopsis plants.

[2] = system: Arabidopsis thaliana expressing AtCesA3_S983F_S1037F (SEQ ID 3); experiment: as above; settings: based on IC50 values of growth inhibition, seven to ten days after seeding
Procedure: as §1

[3] = system: Arabidopsis thaliana expressing AtCesA1_wt (SEQ ID 1); experiment: as above; settings: based on IC50 values of growth inhibition, seven to ten days after seeding
Procedure: as §1

[4] = system: Arabidopsis thaliana expressing AtCesA3_wt (SEQ ID 3); experiment: as above; settings: based on IC50 values of growth inhibition, seven to ten days after seeding
Procedure: as §1

[5] = system: Arabidopsis thaliana expressing AtCesA3_S983F_S1040L (SEQ ID 3); experiment: as above; settings: based on IC50 values of growth inhibition, seven to ten days after seeding
Procedure: as §1

Brassica napus wildtype = experiment: 6-well plate injury test, seeds on vermiculite; settings: 7 days after treatment
Procedure: (§2) Transgenic Brassica napus plants are assayed for improved tolerance to azine herbicides like e. g. 6-cyclopentyl-N4-(2,3,4,5,6-pentafluorophenyl)-1,3,5-triazine-2,4-diamine in 6-well plates. Therefore, 5-6 T1 seeds are sown on vermiculite and watered with half-strength murashige skoog nutrient solution, pH 5.8 (Murashige and Skoog (1962) Physiologia Plantarum 15: 473-497). Compounds are dissolved in dimethylsulfoxid (DMSO) and added to the medium (final DMSO concentration 0.1%). Multi well plates are incubated in a growth chamber at 22° C., 75% relative humidity and 110 μmol Phot*m^−2*s^−1 with 14: 10 h light: dark photoperiod. Growth inhibition is evaluated seven to ten days after seeding in comparison to wild type plants. Plant injury is rated on a scale of 0% to 100%, 0% being no injury and 100% being complete death.

[6] = system: Arabidopsis thaliana expressing AtCesA1_P1010L_G1013R (SEQ ID 1); experiment: 48-well plate growth inhibition, T2 seeds, tolerance factor; settings: based on IC50 values of growth inhibition, seven to ten days after seeding
Procedure: as §1

[7] = system: Brassica napus expressing BnaAnng01240D (SEQ ID 20) variant S1041L; experiment: 6-well plate injury test, T1 seeds on vermiculite; settings: 7 days after treatment
Procedure: as §2

## Cc1cccc(-n2nc(C(N)=O)nc2-c2ccccc2)c1 [1-(m-tolyl)-5-phenyl-1,2,4-triazole-3-carboxamide, reference compound]
[1]
  Relative tolerance rate as compared to non-transgenic Arabidopsis plants (non-transgenic = 1.0): 25
[2]
  Relative tolerance rate as compared to non-transgenic Arabidopsis plants (non-transgenic = 1.0): 80
[3]
  Relative tolerance rate as compared to non-transgenic Arabidopsis plants (non-transgenic = 1.0): 3
[4]
  Relative tolerance rate as compared to non-transgenic Arabidopsis plants (non-transgenic = 1.0): 4
[5]
  Relative tolerance rate as compared to non-transgenic Arabidopsis plants (non-transgenic = 1.0): 100

## NC(=O)c1nc(-c2ccccc2)n(-c2ccc(Cl)c(COCC(F)(F)C(F)(F)F)c2)n1 [1-[4-chloro-3-(2,2,3,3,3-pentafluoropropoxymethyl)phenyl]-5-phenyl-1,2,4-triazole-3-carboxamide, reference compound]
Brassica napus wildtype; 10^-4M
  average phytotox value: 96%
Brassica napus wildtype; 10^-5M
  average phytotox value: 93%
Brassica napus wildtype; 10^-6M
  average phytotox value: 84%
Brassica napus wildtype; 10^-7M
  average phytotox value: 41%
Brassica napus wildtype; 10^-8M
  average phytotox value: 4%
[6]
  Relative tolerance rate as compared to non-transgenic Arabidopsis plants (non-transgenic = 1.0): 400
[7]; BnaAnng01240D S1041L event 1, 10^-4M
  average phytotox value: 95%
[7]; BnaAnng01240D S1041L event 1, 10^-5M
  average phytotox value: 85%
[7]; BnaAnng01240D S1041L event 1, 10^-6M
  average phytotox value: 80%
[7]; BnaAnng01240D S1041L event 1, 10^-7M
  average phytotox value: 10%
[7]; BnaAnng01240D S1041L event 1, 10^-8M
  average phytotox value: 0%
[7]; BnaAnng01240D S1041L event 2, 10^-4M
  average phytotox value: 90%
[7]; BnaAnng01240D S1041L event 2, 10^-5M
  average phytotox value: 90%
[7]; BnaAnng01240D S1041L event 2, 10^-6M
  average phytotox value: 90%
[7]; BnaAnng01240D S1041L event 2, 10^-7M
  average phytotox value: 0%
[7]; BnaAnng01240D S1041L event 2, 10^-8M
  average phytotox value: 0%
